Test results: patent US20240115672A1, “TREATMENT OF AN IOP CONDITION” (THE RESEARCH FOUNDATION FOR THE STATE UNIVERSITY OF NEW YORK, priority 2021, published 2024)

How the values were obtained:
[1] = test system: sheep of the Corriedale breed; assay: IOP in prednisolone-treated sheep after intravitreal tPA (Example 3, Protocol 1); format: in vivo
Procedure: Methods. The inventors used recombinant human tissue plasminogen activator (rtPA) ([…]; Boehringer Ingelheim SA, Buenos Aires, Argentina) in two different protocols.
Protocol 1. 8 sheep of the Corriedale breed were treated with prednisolone acetate three times a day in both eyes, leading to elevated IOP. After one week, the animals received intravitreal injections of human recombinant tPA (100, 200, 500 and 1000 μg, two animals each) dissolved in balanced salt solution (BSS) in one eye. IOP was monitored for 19 more days while the animals continued to receive treatment with prednisolone. Periodic slit lamp examination was also performed.

sheep = assay: Sheep given tPA or arginine concurrently with prednisolone (Example 3 Protocol 2, Example 4); format: in vivo; settings: 11 days
Procedure: Protocol 2. In a second set of experiments, arginine was added to the BSS vehicle administered to the left eye to control for the relatively high concentration of the amino acid in the commercially available tPA lyophilisate. In these experiments all right eyes received 0.1 mg tPA, which concomitantly delivered 4.23 mg of arginine into the vitreous, and the left eye received this same amount of arginine, absent the tPA. On Day 1, prednisolone treatments were also begun simultaneously on both eyes.
Methods. In this experiment, the inventor sought to detect the effects of tPA treatment on prevention of steroid-induced IOP elevation. In 4 sheep tPA was injected in one eye (100 μg) and they were started on prednisolone acetate three times a day in both eyes. Animals were monitored for 11 days on continuous treatment.

[2] = test system: sheep of the Coriedale breed; assay: IOP in prednisolone-treated sheep after tPA injection into the anterior chamber (Example 9); format: in vivo; settings: 0.0001 μg into the AC; IOP 23.0 mm Hg at 6:00 and 30:00 hrs after injection
Procedure: Methods. Lyophilized IPA, obtained as Acetilyse® from Boehringer Ingelheim S.A. (Buenos Aires) containing arginine. was used. Five sheep of the Coriedale breed were selected. Initially all eyes received instillation of 1% prednisolone 3 times/day for 10 days to elevate their IOP from 10 mm Hg to about 23 mm Hg. Then, 0.0001 μg was injected into one of the eyes and its effect was followed for up to 55:00 hrs while the instillation of prednisolone continued in both eyes. The same protocol was implemented for the 0.001 and 0.01 μg amounts (after extended washout) in the contra lateral eyes. Arginine, which is associated with 0.01 ug tPA, was injected alone and had no effect.

[3] = test system: MMP-2, MMP-9, MMP-13 expression in HTM cells; assay: MMP expression in HTM cells (Examples 17, 18); format: cell-based, human; settings: PA treated HTM cells; p<0.0001
[4] = test system: Mmp-2, Mmp-9, Mmp-13 mRNA in angle ring tissues; assay: Mmp expression in Tg-MYOCY437H angle ring tissues (Example 19); format: in vivo, mouse
Procedure: Eyes were flash frozen in liquid nitrogen after outflow facility determination and subsequently dissected on ice to obtain the angle ring tissues containing the TM, as previously described (Kumar, Shah et al. 2013). Dissected TM tissues were immersed in RNAlater solution (Invitrogen, Waltham, MA, USA) and then snap-frozen and stored at −80° C. until RNA extraction. Tissue collected was pooled (four eyes) and homogenized in TRIzol reagent for RNA isolation, per manufacturer's instructions (Life Technologies, Carlsbad, CA, USA). RNA concentration was determined with a Nanodrop ND-1000 Spectrophotometer (Thermo Scientific, Wilmington, DE, USA). cDNA was synthesized by using High-Capacity cDNA
Reverse Transcription Kit (Applied Biosystems, Waltham, MA, USA) according to manufacturer's protocol. Quantitative real-time PCR (qRT-PCR) was performed by using Green-2-Go qPCR Mastermix-ROX (Bio Basic, Amherst, NY, USA) on a QuantStudio 6 Flex thermal cycler (Applied Biosystems, Carlsbad, CA, USA). mRNA expression of Plat, Plait, Pai-1, Mmp-2, Mmp-9, and Mmp-13 in angle ring tissues was determined. Primers were designed by using Primer-BLAST (haps://www.ncbi.nlm.nih.gov/tools/primer-blast/index.cgi?LINK_LOC=BlastHome; in the public domain); primer sequences are listed in Table 2. Primer specificity was confirmed by agarose gel electrophoresis and multiple-sized amplification products were absent on inspection of melting curves. Target mRNA expression values were normalized to the expression levels of Rps11 (ribosomal protein S11). The relative fold change was calculated by using the ΔΔCt method (Hu, Wang et al. 2015). Outliers identified via the Thompson Tau test were removed from analysis.

[5] = intravitreal; toxicity attributed to arginine in the commercial preparations; cited from earlier work
[6] = 2 days after intravitreal protein

For “tPA: recombinant human tissue plasminogen activator (ACTILYSE; Boehringer Ingelheim), enzymatically active”, the “dose dependence of the IOP effect” value ([1]; 100, 200, 500 and 1000 μg, p>0.05 ANOVA) was “independent of the dose”, the ocular findings ([1]; intravitreal tPA, unrelated to the dose injected) was “Transient injection and corneal clouding was observed in some eyes” and the “mean (±SD) IOP after tPA” value ([1]; within 24 h of intravitreal tPA, all doses tested (100-1000 μg), prednisolone continued, before 24.1 (±1.6)) was 14.1 (±1.1) mmHg. The “effect on steroid-induced IOP elevation” value (sheep; 100 μg in one eye concurrent with prednisolone acetate three times a day) was “prevented IOP elevation”, the ocular findings (sheep; 100 μg tPA) was “Transient injection and corneal clouding was observed in some eyes” and the “effect on IOP” value [2] was “no effect”. The “expression (FIG. 17C) compared to PA+BSA treated cells” value [3] was “significant upregulation”, the “Mmp-2 expression compared to BSA treated eyes” value [4, 6] was “no significant difference” and the “Mmp-9 expression compared to BSA treated eyes” value [4, 6] was “not detected”. For the same substance, the “Mmp-13 expression compared to BSA treated eyes” value ([4]; 2 days after intravitreal protein, p<0.01) was “significantly higher”, the “Mmp-9 expression compared to BSA treated eyes” value ([4]; 5 days treatment) was “higher” and the “Mmp-13 expression compared to BSA treated eyes” value ([4]; 5 days treatment) was “significantly higher”. The “Mmp-2 expression compared to BSA treated eyes” value ([4]; 5 days treatment, p>0.05) was “no significant difference” and the “doses with reported retinal toxicity” value [5] was 50-100 lag.
